pIC50: −log10 of the molar value.
Tests used:
[1] = biological target: T1, SYK kinase (Homo sapiens, UniProt P43405); experiment: SYK Assay (OMNIA Kinase Assay, SOX peptide fluorescence); assay type: biochemical; conditions: 1 mM ATP, 10 μM Omnia Peptide Substrate Tyr 7, 30° C., readings for 30 minutes; read-out: SYK Activities: IC50
T1 construct: purchased Invitrogen, Carlsbad
In short: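 The reaction was run at 30 °C with 1 mM ATP, 0.2 mM DTT and 10 μM Omnia Tyr 7 peptide (final) and started by adding SYK. Chelation-enhanced SOX fluorescence (ex 360/em 485 nm) was read every 30 s for 30 min. Reaction velocity versus inhibitor concentration was fitted sigmoidally for IC50.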

[2] = biological target: LRRK2 (Homo sapiens, UniProt Q5S007); experiment: LRRK2-LRRK2 G2019S-Assay (LanthaScreen Eu Kinase Binding Assay); conditions: 5 nM LRRK2, 10 nM tracer 236, 2 nM EU-Anti-GST antibody, 1 h at RT; read-out: LRRK2 Activities: IC50
In short: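 Compound competition with Alexa Fluor 647 tracer 236 (10 nM) was measured after 1 h at room temperature, using 5 nM LRRK2 (wild type or mutant) bound to 2 nM Eu-anti-GST antibody. IC50 was derived from the acceptor/donor (665/615 nm) ratio using a variable-slope dose-response fit.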

LRRK2, sequence (Q5S007 970-2527 limits assumed): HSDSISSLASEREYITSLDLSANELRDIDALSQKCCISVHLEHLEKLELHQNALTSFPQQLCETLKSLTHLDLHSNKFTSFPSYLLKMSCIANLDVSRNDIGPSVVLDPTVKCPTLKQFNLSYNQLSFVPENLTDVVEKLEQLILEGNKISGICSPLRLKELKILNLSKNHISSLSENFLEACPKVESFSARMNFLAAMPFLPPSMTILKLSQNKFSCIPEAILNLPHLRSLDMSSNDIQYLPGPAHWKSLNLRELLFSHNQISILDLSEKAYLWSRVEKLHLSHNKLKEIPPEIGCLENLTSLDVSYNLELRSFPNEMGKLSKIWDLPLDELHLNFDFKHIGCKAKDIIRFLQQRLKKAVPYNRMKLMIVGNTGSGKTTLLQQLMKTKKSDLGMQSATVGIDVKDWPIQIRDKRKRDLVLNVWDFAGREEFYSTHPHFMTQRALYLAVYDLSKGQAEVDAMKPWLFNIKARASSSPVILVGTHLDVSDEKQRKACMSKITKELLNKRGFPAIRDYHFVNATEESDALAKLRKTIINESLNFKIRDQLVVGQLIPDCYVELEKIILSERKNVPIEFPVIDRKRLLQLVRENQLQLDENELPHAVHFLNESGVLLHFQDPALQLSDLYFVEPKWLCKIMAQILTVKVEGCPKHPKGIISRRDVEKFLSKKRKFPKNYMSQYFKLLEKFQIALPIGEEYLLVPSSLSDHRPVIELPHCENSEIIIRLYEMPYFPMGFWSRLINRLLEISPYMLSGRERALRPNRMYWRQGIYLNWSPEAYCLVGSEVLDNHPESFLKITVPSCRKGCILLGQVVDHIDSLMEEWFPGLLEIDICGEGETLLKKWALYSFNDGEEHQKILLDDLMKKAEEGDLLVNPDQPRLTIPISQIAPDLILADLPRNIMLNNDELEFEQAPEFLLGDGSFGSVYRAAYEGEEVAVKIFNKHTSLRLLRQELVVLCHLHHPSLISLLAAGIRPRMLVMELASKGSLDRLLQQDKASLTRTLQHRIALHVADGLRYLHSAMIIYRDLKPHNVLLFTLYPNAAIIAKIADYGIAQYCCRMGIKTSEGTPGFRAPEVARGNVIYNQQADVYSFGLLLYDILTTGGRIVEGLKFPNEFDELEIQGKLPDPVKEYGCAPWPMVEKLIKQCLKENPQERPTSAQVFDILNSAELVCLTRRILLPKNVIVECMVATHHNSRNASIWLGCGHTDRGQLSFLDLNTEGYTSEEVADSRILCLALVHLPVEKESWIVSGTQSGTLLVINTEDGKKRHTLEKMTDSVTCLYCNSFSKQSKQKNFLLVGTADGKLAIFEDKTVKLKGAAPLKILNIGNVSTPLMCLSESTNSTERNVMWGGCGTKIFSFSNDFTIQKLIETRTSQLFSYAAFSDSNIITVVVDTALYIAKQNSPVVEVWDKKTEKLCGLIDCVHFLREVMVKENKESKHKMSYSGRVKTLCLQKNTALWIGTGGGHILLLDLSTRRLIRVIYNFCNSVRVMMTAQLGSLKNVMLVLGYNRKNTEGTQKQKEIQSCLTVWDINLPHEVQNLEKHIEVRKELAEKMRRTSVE

Structure (SMILES)	pIC50 [1]	pIC50 [2]
CO[C@H]1CCCC[C@H]1n1cc(Nc2nc3ccc(S(C)(=O)=O)cc3c3c[nH]nc23)cn1 [Example 353, N-(1-((1R,2S)-2-methoxycyclohexyl)-1H-pyrazol-4-yl)-8-(methylsulfonyl)-2H-pyrazolo[3,4-c]quinolin-4-amine]	6.00 to 7.00	> 8.00
COc1ccc2nc(Nc3ccc(N4CCN(CCO)CC4)cc3)c3[nH]ncc3c2c1 [Example 297, 2-(4-(4-((8-methoxy-3H-pyrazolo[3,4-c]quinolin-4-yl)amino)phenyl)piperazin-1-yl)ethan-1-ol]	7.00 to 8.00	7.00 to 8.00
CC(C)(C#N)n1cc(Nc2nc3cc(S(C)(=O)=O)ccc3c3cn[nH]c23)cn1 [Example 191, 2-methyl-2-(4-((7-(methylsulfonyl)-3H-pyrazolo[3,4-c]quinolin-4-yl)amino)-1H-pyrazol-1-yl)propanenitrile]	6.00 to 7.00	7.00 to 8.00
COCC(C)(C)n1cc(Nc2nc3cccc(OC)c3c3cn[nH]c23)cn1 [Example 204, 9-methoxy-N-(1-(1-methoxy-2-methylpropan-2-yl)-1H-pyrazol-4-yl)-3H-pyrazolo[3,4-c]quinolin-4-amine]	6.00 to 7.00	> 8.00
COCCCn1cc(Nc2nc3cccc(OC)c3c3cn[nH]c23)cn1 [Example 183, 9-methoxy-N-(1-(3-methoxypropyl)-1H-pyrazol-4-yl)-3H-pyrazolo[3,4-c]quinolin-4-amine]	6.00 to 7.00	> 8.00
COc1cccc2nc(Nc3cnn(C(C)C)c3)c3[nH]ncc3c12 [Example 182, N-(1-isopropyl-1H-pyrazol-4-yl)-9-methoxy-3H-pyrazolo[3,4-c]quinolin-4-amine]	7.00 to 8.00	> 8.00
COc1ccc2nc(Nc3cnn(CC(C)(C)O)c3)c3[nH]ncc3c2c1 [Example 298, 1-(4-((8-methoxy-3H-pyrazolo[3,4-c]quinolin-4-yl)amino)-1H-pyrazol-1-yl)-2-methylpropan-2-ol]	6.00 to 7.00	7.00 to 8.00
COc1ccc2nc(Nc3cnn(CC(C)C)c3)c3[nH]ncc3c2c1 [Example 285, N-(1-isobutyl-1H-pyrazol-4-yl)-8-methoxy-3H-pyrazolo[3,4-c]quinolin-4-amine]	6.00 to 7.00	7.00 to 8.00
CS(=O)(=O)c1ccc2c(c1)nc(Nc1ccc3c(c1)NC(=O)CCC3)c1[nH]ncc12 [Example 119, 8-((7-(methylsulfonyl)-3H-pyrazolo[3,4-c]quinolin-4-yl)amino)-4,5-dihydro-1H-benzo[b]azepin-2(3H)-one]	7.00 to 8.00	6.00 to 7.00
COc1cccc2nc(Nc3cnn(CC(F)(F)F)c3)c3[nH]ncc3c12 [Example 257, 9-methoxy-N-(1-(2,2,2-trifluoroethyl)-1H-pyrazol-4-yl)-3H-pyrazolo[3,4-c]quinolin-4-amine]	6.00 to 7.00	> 8.00
CSc1ccc2nc(Nc3ccc4c(c3)NC(=O)CC4)c3[nH]ncc3c2c1 [Example 47, 7-((8-(methylthio)-3H-pyrazolo[3,4-c]quinolin-4-yl)amino)-3,4-dihydroquinolin-2(1H)-one]	> 8.00	> 8.00
COCCn1ncc(Nc2nc3ccc(S(C)(=O)=O)cc3c3cn[nH]c23)c1C#N [Example 249, 1-(2-methoxyethyl)-4-((8-(methylsulfonyl)-3H-pyrazolo[3,4-c]quinolin-4-yl)amino)-1H-pyrazole-5-carbonitrile]	6.00 to 7.00	7.00 to 8.00
CC(=O)N1CCN(c2ccc(Nc3nc4ccc(C)cc4c4cn[nH]c34)cc2)CC1 [Example 73, 1-(4-(4-((8-methyl-3H-pyrazolo[3,4-c]quinolin-4-yl)amino)phenyl)piperazin-1-yl)ethan-1-one]	6.00 to 7.00	7.00 to 8.00
COCCCn1cc(Nc2nc3cc(S(C)(=O)=O)ccc3c3cn[nH]c23)cn1 [Example 190, N-(1-(3-methoxypropyl)-1H-pyrazol-4-yl)-7-(methylsulfonyl)-3H-pyrazolo[3,4-c]quinolin-4-amine]	7.00 to 8.00	7.00 to 8.00

Second part, the compound after the results:

pIC50 [1]	pIC50 [2]	Structure (SMILES)
6.00 to 7.00	7.00 to 8.00	COc1ccc2nc(Nc3cnn(CC(=O)N(C)C)c3)c3n[nH]cc3c2c1 [Example 311, 2-(4-((8-methoxy-2H-pyrazolo[3,4-c]quinolin-4-yl)amino)-1H-pyrazol-1-yl)-N,N-dimethylacetamide]
7.00 to 8.00	> 8.00	COc1cccc2nc(Nc3cnn(C4CCN(C)CC4)c3)c3[nH]ncc3c12 [Example 118, 9-methoxy-N-(1-(1-methylpiperidin-4-yl)-1H-pyrazol-4-yl)-3H-pyrazolo[3,4-c]quinolin-4-amine]
6.00 to 7.00	7.00 to 8.00	COc1nn(C2CCN(C(C)(C)C)CC2)cc1Nc1nc2ccc(S(C)(=O)=O)cc2c2cn[nH]c12 [Example 228, N-(1-(1-(tert-butyl)piperidin-4-yl)-3-methoxy-1H-pyrazol-4-yl)-8-(methylsulfonyl)-3H-pyrazolo[3,4-c]quinolin-4-amine]
6.00 to 7.00	7.00 to 8.00	COCCCn1cc(Nc2nc3c(OC)cc(OC)cc3c3cn[nH]c23)cn1 [Example 290, 6,8-dimethoxy-N-(1-(3-methoxypropyl)-1H-pyrazol-4-yl)-3H-pyrazolo[3,4-c]quinolin-4-amine]
7.00 to 8.00	6.00 to 7.00	CN1CCC(n2cc(Nc3nc4cc(S(C)(=O)=O)ccc4c4cn[nH]c34)cn2)CC1 [Example 167, N-(1-(1-methylpiperidin-4-yl)-1H-pyrazol-4-yl)-7-(methylsulfonyl)-3H-pyrazolo[3,4-c]quinolin-4-amine]
7.00 to 8.00	> 8.00	CS(=O)(=O)c1ccc2nc(Nc3cnn(CC(F)(F)F)c3)c3[nH]ncc3c2c1 [Example 261, 8-(methylsulfonyl)-N-(1-(2,2,2-trifluoroethyl)-1H-pyrazol-4-yl)-3H-pyrazolo[3,4-c]quinolin-4-amine]
6.00 to 7.00	7.00 to 8.00	CC(C)n1cc(Nc2nc3ccc(S(C)(=O)=O)cc3c3cn[nH]c23)c(C#N)n1 [Example 246, 1-isopropyl-4-((8-(methylsulfonyl)-3H-pyrazolo[3,4-c]quinolin-4-yl)amino)-1H-pyrazole-3-carbonitrile]
> 8.00	7.00 to 8.00	CS(=O)(=O)c1ccc2nc(Nc3ccc(N4CCOCC4)cc3)c3[nH]ncc3c2c1 [Example 55, 8-(methylsulfonyl)-N-(4-morpholinophenyl)-3H-pyrazolo[3,4-c]quinolin-4-amine]
7.00 to 8.00	> 8.00	COc1cccc2nc(Nc3cnn(C4CCNCC4)c3)c3[nH]ncc3c12 [Example 236, 9-methoxy-N-(1-(piperidin-4-yl)-1H-pyrazol-4-yl)-3H-pyrazolo[3,4-c]quinolin-4-amine]
6.00 to 7.00	6.00 to 7.00	COc1ccc2nc(Nc3ccc4[nH]c(SC)nc4c3)c3n[nH]cc3c2c1 [Example 56, 8-methoxy-N-(2-(methylthio)-1H-benzo[d]imidazol-5-yl)-2H-pyrazolo[3,4-c]quinolin-4-amine]
7.00 to 8.00	7.00 to 8.00	CC(C)(C)N1CCN(c2ccc(Nc3nc4ccc(S(C)(=O)=O)cc4c4cn[nH]c34)cc2)CC1 [Example 80, N-(4-(4-(tert-butyl)piperazin-1-yl)phenyl)-8-(methylsulfonyl)-3H-pyrazolo[3,4-c]quinolin-4-amine]
6.00 to 7.00	7.00 to 8.00	CSc1ccc2nc(Nc3ccc(N4CCN(C(C)=O)CC4)cc3)c3[nH]ncc3c2c1 [Example 46, 1-(4-(4-((8-(methylthio)-3H-pyrazolo[3,4-c]quinolin-4-yl)amino)phenyl)piperazin-1-yl)ethan-1-one]
6.00 to 7.00	7.00 to 8.00	COc1ccc2nc(Nc3ccc(C(=O)N4CCC(N5CCN(C)CC5)CC4)cc3)c3n[nH]cc3c2c1 [Example 6, (4-((8-methoxy-2H-pyrazolo[3,4-c]quinolin-4-yl)amino)phenyl)(4-(4-methylpiperazin-1-yl)piperidin-1-yl)methanone]
7.00 to 8.00	7.00 to 8.00	CSc1ccc2nc(Nc3ccc(CN(C)C)cc3)c3[nH]ncc3c2c1 [Example 48, N-(4-((dimethylamino)methyl)phenyl)-8-(methylthio)-3H-pyrazolo[3,4-c]quinolin-4-amine]
7.00 to 8.00	> 8.00	COCCCn1cc(Nc2nc3ccc(OC)cc3c3cn[nH]c23)cn1 [Example 287, 8-methoxy-N-(1-(3-methoxypropyl)-1H-pyrazol-4-yl)-3H-pyrazolo[3,4-c]quinolin-4-amine]
6.00 to 7.00	7.00 to 8.00	COCCn1cc(Nc2nc3ccc(OC)cc3c3c[nH]nc23)cn1 [Example 109, 8-methoxy-N-(1-(2-methoxyethyl)-1H-pyrazol-4-yl)-2H-pyrazolo[3,4-c]quinolin-4-amine]
> 8.00	> 8.00	CC(C)(C)N1CCC(n2cc(Nc3nc4ccc(S(C)(=O)=O)cc4c4cn[nH]c34)cn2)CC1 [Example 211, N-(1-(1-(tert-butyl)piperidin-4-yl)-1H-pyrazol-4-yl)-8-(methylsulfonyl)-3H-pyrazolo[3,4-c]quinolin-4-amine]
7.00 to 8.00	7.00 to 8.00	COC(C)(C)Cn1cc(Nc2nc3ccc(S(C)(=O)=O)cc3c3cn[nH]c23)cn1 [Example 315, N-(1-(2-methoxy-2-methylpropyl)-1H-pyrazol-4-yl)-8-(methylsulfonyl)-3H-pyrazolo[3,4-c]quinolin-4-amine]
6.00 to 7.00	> 8.00	COc1nn(C(C)C)cc1Nc1nc2ccc(S(C)(=O)=O)cc2c2cn[nH]c12 [Example 226, N-(1-isopropyl-3-methoxy-1H-pyrazol-4-yl)-8-(methylsulfonyl)-3H-pyrazolo[3,4-c]quinolin-4-amine]
